# Measurements published in US12471596B2 (priority 2019, dated 2025).
# Tested on: Phytophthora infestans
# Test: microbe, parasite or virus in culture
# Format: cell-based
# Details: in Secale cereale, 168 h, read-out: control compared to the untreated check
row,SMILES,inhibition of growth at 30 ppm [%]
1,"O=C(COc1cc(C(F)(F)F)ncn1)N1CCC(c2nc(C3=NOC(c4c(Cl)cccc4C(F)(F)F)C3)cs2)CC1 (stereo not shown) [Compound 10, 1-(4-(4-(5-(2-chloro-6-(trifluoromethyl)phenyl)-4,5-dihydroisoxazol-3-yl)thiazol-2-yl)piperidin-1-yl)-2-((6-(trifluoromethyl)pyrimidin-4-yl)oxy)ethan-1-one]",≥ 70
2,"O=C(COc1cc(C(F)(F)F)ncn1)N1CCC(c2nc(C3=NOC(c4c(Cl)cc(Cl)cc4Cl)C3)cs2)CC1 (stereo not shown) [Compound 11, 1-(4-(4-(5-(2,4,6-trichlorophenyl)-4,5-dihydroisoxazol-3-yl)thiazol-2-yl)piperidin-1-yl)-2-((6-(trifluoromethyl)pyrimidin-4-yl)oxy)ethan-1-one]",≥ 70
3,"O=C(COc1cc(C(F)(F)F)ncn1)N1CCC(c2nc(C3=NOC(c4c(F)cccc4F)C3)cs2)CC1 (stereo not shown) [Compound 12, 1-(4-(4-(5-(2,6-difluorophenyl)-4,5-dihydroisoxazol-3-yl)thiazol-2-yl)piperidin-1-yl)-2-((6-(trifluoromethyl)pyrimidin-4-yl)oxy)ethan-1-one]",≥ 70
4,"O=C(COc1ccnc(C(F)(F)F)n1)N1CCC(c2nc(C3=NOC(c4c(Cl)cc(Cl)cc4Cl)C3)cs2)CC1 (stereo not shown) [Compound 19, 1-(4-(4-(5-(2,4,6-trichlorophenyl)-4,5-dihydroisoxazol-3-yl)thiazol-2-yl)piperidin-1-yl)-2-((2-(trifluoromethyl)pyrimidin-4-yl)oxy)ethan-1-one]",≥ 70
5,"O=C(COc1ccnc(C(F)(F)F)n1)N1CCC(c2nc(C3=NOC(c4c(F)cccc4Cl)C3)cs2)CC1 (stereo not shown) [Compound 20, 1-(4-(4-(5-(2-chloro-6-fluorophenyl)-4,5-dihydroisoxazol-3-yl)thiazol-2-yl)piperidin-1-yl)-2-((2-(trifluoromethyl)pyrimidin-4-yl)oxy)ethan-1-one]",≥ 70
6,"CS(=O)(=O)Oc1cccc(Cl)c1C1CC(c2csc(C3CCN(C(=O)COc4ccnc(C(F)(F)F)n4)CC3)n2)=NO1 (stereo not shown) [Compound 21, 3-chloro-2-(3-(2-(1-(2-((2-(trifluoromethyl)pyrimidin-4-yl)oxy)acetyl)piperidin-4-yl)thiazol-4-yl)-4,5-dihydroisoxazol-5-yl)phenyl methanesulfonate]",≥ 70
7,"COc1nccnc1OCC(=O)N1CCC(c2nc(C3=NOC(c4c(Cl)cc(Cl)cc4Cl)C3)cs2)CC1 (stereo not shown) [Compound 24, 2-((3-methoxypyrazin-2-yl)oxy)-1-(4-(4-(5-(2,4,6-trichlorophenyl)-4,5-dihydroisoxazol-3-yl)thiazol-2-yl)piperidin-1-yl)ethan-1-one]",≥ 70
8,"COc1nccnc1OCC(=O)N1CCC(c2nc(C3=NOC(c4c(Cl)cccc4Cl)C3)cs2)CC1 (stereo not shown) [Compound 30, 1-(4-(4-(5-(2,6-dichlorophenyl)-4,5-dihydroisoxazol-3-yl)thiazol-2-yl)piperidin-1-yl)-2-((3-methoxypyrazin-2-yl)oxy)ethan-1-one]",≥ 70
9,"COc1ccnc(OCC(=O)N2CCC(c3nc(C4=NOC(c5c(F)cccc5Br)C4)cs3)CC2)n1 (stereo not shown) [Compound 44, 1-(4-(4-(5-(2-bromo-6-fluorophenyl)-4,5-dihydroisoxazol-3-yl)thiazol-2-yl)piperidin-1-yl)-2-((4-methoxypyrimidin-2-yl)oxy)ethan-1-one]",≥ 70
10,"N#Cc1cccc(Cl)c1C1CC(c2csc(C3CCN(C(=O)COc4nccc(C(F)(F)F)n4)CC3)n2)=NO1 (stereo not shown) [Compound 45, 3-chloro-2-(3-(2-(1-(2-((4-(trifluoromethyl)pyrimidin-2-yl)oxy)acetyl)piperidin-4-yl)thiazol-4-yl)-4,5-dihydroisoxazol-5-yl)benzonitrile]",≥ 70
11,"CS(=O)(=O)Oc1cccc(Cl)c1C1CC(c2csc(C3CCN(C(=O)COc4nccc(C(F)(F)F)n4)CC3)n2)=NO1 (stereo not shown) [Compound 46, 3-chloro-2-(3-(2-(1-(2-((4-(trifluoromethyl)pyrimidin-2-yl)oxy)acetyl)piperidin-4-yl)thiazol-4-yl)-4,5-dihydroisoxazol-5-yl)phenyl methanesulfonate]",≥ 70
12,"O=C(COc1nccc(C(F)(F)F)n1)N1CCC(c2nc(C3=NOC(c4c(Cl)cccc4Cl)C3)cs2)CC1 (stereo not shown) [Compound 47, 1-(4-(4-(5-(2,6-dichlorophenyl)-4,5-dihydroisoxazol-3-yl)thiazol-2-yl)piperidin-1-yl)-2-((4-(trifluoromethyl)pyrimidin-2-yl)oxy)ethan-1-one]",≥ 70
13,"O=C(COc1nccc(C(F)(F)F)n1)N1CCC(c2nc(C3=NOC(c4c(F)cccc4Cl)C3)cs2)CC1 (stereo not shown) [Compound 48, 1-(4-(4-(5-(2-chloro-6-fluorophenyl)-4,5-dihydroisoxazol-3-yl)thiazol-2-yl)piperidin-1-yl)-2-((4-(trifluoromethyl)pyrimidin-2-yl)oxy)ethan-1-one]",≥ 70
14,"O=C(COc1nccc(C(F)(F)F)n1)N1CCC(c2nc(C3=NOC(c4c(Cl)cc(Cl)cc4Cl)C3)cs2)CC1 (stereo not shown) [Compound 49, 1-(4-(4-(5-(2,4,6-trichlorophenyl)-4,5-dihydroisoxazol-3-yl)thiazol-2-yl)piperidin-1-yl)-2-((4-(trifluoromethyl)pyrimidin-2-yl)oxy)ethan-1-one]",≥ 70
15,"O=C(COc1nccc(C(F)(F)F)n1)N1CCC(c2nc(C3=NOC(c4c(F)cccc4F)C3)cs2)CC1 (stereo not shown) [Compound 50, 1-(4-(4-(5-(2,6-difluorophenyl)-4,5-dihydroisoxazol-3-yl)thiazol-2-yl)piperidin-1-yl)-2-((4-(trifluoromethyl)pyrimidin-2-yl)oxy)ethan-1-one]",≥ 70
16,"O=C(COc1nccc(C(F)(F)F)n1)N1CCC(c2nc(C3=NOC(c4c(F)cccc4Br)C3)cs2)CC1 (stereo not shown) [Compound 52, 1-(4-(4-(5-(2-bromo-6-fluorophenyl)-4,5-dihydroisoxazol-3-yl)thiazol-2-yl)piperidin-1-yl)-2-((4-(trifluoromethyl)pyrimidin-2-yl)oxy)ethan-1-one]",≥ 70
17,"O=C(COc1cncc(C(F)(F)F)n1)N1CCC(c2nc(C3=NOC(c4c(F)cccc4Cl)C3)cs2)CC1 (stereo not shown) [Compound 53, 1-(4-(4-(5-(2-chloro-6-fluorophenyl)-4,5-dihydroisoxazol-3-yl)thiazol-2-yl)piperidin-1-yl)-2-((6-(trifluoromethyl)pyrazin-2-yl)oxy)ethan-1-one]",≥ 70
18,"O=C(COc1cncc(C(F)(F)F)n1)N1CCC(c2nc(C3=NOC(c4c(Cl)cccc4Cl)C3)cs2)CC1 (stereo not shown) [Compound 55, 1-(4-(4-(5-(2,6-dichlorophenyl)-4,5-dihydroisoxazol-3-yl)thiazol-2-yl)piperidin-1-yl)-2-((6-(trifluoromethyl)pyrazin-2-yl)oxy)ethan-1-one]",≥ 70
19,"N#Cc1cccc(Cl)c1C1CC(c2csc(C3CCN(C(=O)COc4cncc(C(F)(F)F)n4)CC3)n2)=NO1 (stereo not shown) [Compound 56, 3-chloro-2-(3-(2-(1-(2-((6-(trifluoromethyl)pyrazin-2-yl)oxy)acetyl)piperidin-4-yl)thiazol-4-yl)-4,5-dihydroisoxazol-5-yl)benzonitrile]",≥ 70
